Legend:
[1] = test system: H358 cells; experiment: Antiproliferative activity against H358 cells (Cell Titer Glow, ultra-low attachment plate); assay type: cell-based; details: Homo sapiens, NCI-H358, 72 h, 96-well ultra-low attachment plate, three days after addition of compound, Cell Titer Glow
Procedure: 2500 H358 cells were seeded in a 96-well ultra-low attachment plate (corning, 7007). After one day of growth, a serially diluted compound (a maximum concentration of 5 μM, 5-fold dilution, a total of five doses) was added. Three days after the addition of the compound, Cell Titer Glow (Promega, G9681) was added to evaluate pellet growth, and the IC50 value was calculated.

[2] = test system: pERK level in H358 cells; experiment: pERK and ERK protein content assay in H358 cells (ELISA); assay type: cell-based; details: Homo sapiens, NCI-H358, compound 1 μM, 24 h, pERK/ERK ratio compared with DMSO group, read-out: Inhibition rate (%) of pERK level
Procedure, shortened: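 H358 cells grown one day, then treated 24 h with compound at 1 μM. pERK and ERK in lysates measured by ELISA; pERK/ERK ratio expressed as percent inhibition versus DMSO.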

SMILES | IC50 [1] [nM] | inhibition at 1 µM [2] [%]
C=CC(=O)N1CC2(CCN(c3nc(N4CC(N5CC(CO)C5)C4)nc4c(OCC(F)(F)F)c(-c5c(C)ccc6[nH]ncc56)c(C5CC5)cc34)CC2)C1 [Compound 243] | < 300 | > 90
C=CC(=O)N1CC2(CCN(c3nc(N4CC(N5CC[C@H](N(C)C)C5)C4)nc4c(OCC(F)(F)F)c(-c5c(C)ccc6[nH]ncc56)c(C5CC5)cc34)CC2)C1 [Compound 255] | < 300 | > 90
C=CC(=O)N1CC2(CCN(c3nc(N4CCC5(CCN(CCOC)CC5)CC4)nc4c(OCC(F)(F)F)c(-c5c(C)ccc6[nH]ncc56)c(C5CC5)cc34)CC2)C1 [Compound 107] | 300 to 1000 | 50 to 90
C=CC(=O)N1CC2(CCN(c3nc(N4CC[C@H](N5CCC(F)CC5)C4)nc4c(OCC(F)(F)F)c(-c5c(C)ccc6[nH]ncc56)c(C5CC5)cc34)CC2)C1 [Compound 211] | < 300 | > 90
C=CC(=O)N1CC2(CCN(c3nc(N4CC(N(C)CCOC)C4)nc4c(OCC(F)(F)F)c(-c5c(C)ccc6[nH]ncc56)c(C5CC5)cc34)CC2)C1 [Compound 140] | < 300 | > 90
C=C(C(=O)N1CC2(CCN(c3nc(OC4CCN(CCOC)CC4)nc4c(OCC(F)(F)F)c(-c5c(C)ccc6[nH]ncc56)c(C5CC5)cc34)CC2)C1)c1cncnc1 [Compound 21] | < 300 | > 90
C=CC(=O)N1CC2(CCN(c3nc(OC4CCN(CCOC)CC4)nc4c(OCC(F)(F)F)c(-c5c(F)cccc5F)c(C5CC5)cc34)CC2)C1 [Compound 53] | < 300 | > 90
C=CC(=O)N1CC2(CCN(c3nc(N4CC(N5C6CCC5CC6)C4)nc4c(OCC(F)F)c(-c5c(C)ccc6[nH]ncc56)c(C5CC5)cc34)CC2)C1 [Compound 335] | < 300 | > 90
C=CC(=O)N1CC2(CCN(c3nc(N4CC(N5CCC[C@H]5C#N)C4)nc4c(OCC(F)(F)F)c(-c5c(C)ccc6[nH]ncc56)c(C5CC5)cc34)CC2)C1 [Compound 250] | 300 to 1000 | 50 to 90
C=CC(=O)N1CC2(CCN(c3nc(N4CC(N5CCC(C)C5)C4)nc4c(OCC(F)(F)F)c(-c5c(C)c(C)cc6[nH]ncc56)c(C5CC5)cc34)CC2)C1 (centres unmarked) [Compound 324] | < 300 | > 90
C=CC(=O)N1CC2(CCN(c3nc(N4CC[C@@H](N5CC(F)C5)C4)nc4c(OCC(F)(F)F)c(-c5c(C)ccc6[nH]ncc56)c(C5CC5)cc34)CC2)C1 [Compound 202] | < 300 | > 90
C=CC(=O)N1CC2(CCN(c3nc(N4CC(N5CCC(F)CC5)C4)nc4c(OCC(F)(F)F)c(-c5c(C)ccc6[nH]ncc56)c(C5CC5)cc34)CC2)C1 [Compound 178] | < 300 | > 90
C=CC(=O)N1CC2(CCN(c3nc(N4CC5(CCN(C6COC6)CC5)C4)nc4c(OCC(F)(F)F)c(-c5c(C)ccc6[nH]ncc56)c(C5CC5)cc34)CC2)C1 [Compound 89] | < 300 | > 90
